According to patent US20160221965A1, “DISUBSTITUTED TRIFLUOROMETHYL PYRIMIDINONES AND THEIR USE” (BAYER PHARMA AKTIENGESELLSCHAFT, priority 2013, published 2016):

Experiments:
Assay type in all cases: cell-based
human CCR2 = biological target: T1, human CCR2 (Homo sapiens, UniProt P41597); assay: Functional Ca2+ release test (B-1); conditions: Chem-1 cell line transfected with human CCR2, inhibition of MCP-1 effect, MCP-1 at EC50 (about 5 nM), Fluo-4
T1 construct: host or cells: Chem-1 cell line
T1 sequence (P41597 1-360 isoform P41597-2): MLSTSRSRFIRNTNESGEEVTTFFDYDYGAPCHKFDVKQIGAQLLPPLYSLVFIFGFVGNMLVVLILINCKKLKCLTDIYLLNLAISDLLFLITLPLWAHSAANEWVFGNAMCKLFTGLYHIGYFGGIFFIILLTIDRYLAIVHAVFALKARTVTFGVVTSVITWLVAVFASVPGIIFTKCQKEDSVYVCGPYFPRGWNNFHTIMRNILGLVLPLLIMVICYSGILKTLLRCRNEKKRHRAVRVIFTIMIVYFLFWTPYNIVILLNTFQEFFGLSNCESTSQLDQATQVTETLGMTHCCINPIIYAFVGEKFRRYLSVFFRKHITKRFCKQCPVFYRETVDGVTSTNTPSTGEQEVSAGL
Experimental: The antagonistic action of test substances on CCR2 was determined in a functional Ca^2+ release test. Binding of CCL2/MCP-1 to CCR2 leads to a change in the conformation of the receptor resulting in Gi/Gq protein activation and intracellular signal cascade. This involves, inter alia, an intracellular Ca^2+ release. The test cell used was a Chem-1 cell line transfected with human CCR2 (ChemiSCREEN™ CCR2B Calcium-Optimized FLIPR Cell Line, Merck Millipore).
(§1) The test substances were dissolved in dimethyl sulphoxide (DMSO) at a concentration of 10 mM and serially diluted with DMSO in steps of 1:3.16 for a 10-point dose/activity analysis. According to the desired test concentrations, the substances were pre-diluted in Tyrode with 2 mM CaCl2 and 0.05% BSA.
The cells, cultivated in DMEM high glucose [supplemented with 10% FCS, 1 mM pyruvate, 15 mM HEPES, 500 μg/ml geniticin and non-essential amino acids (NEAA)], were sown at 5000 cells/25 μl in 384 well, μCLEAR/black cell culture plates from Greiner (#781092) and incubated at 37° C. for 24 h. The sowing medium consisted of DMEM high glucose [supplemented with 5% FCS, 1 mM pyruvate, 15 mM HEPES, 50 U/ml penicillin, 50 μg/ml streptomycin and non-essential amino acids (NEAA)]. The medium was then removed and the cells were charged for 60 min at 37° C. with Fluo-4 dye [25 μl Tyrode with 3 μM Fluo-4 AM (1 mM DMSO stock solution), 0.4 mg/ml Brilliant Black, 2.5 mM probenicid, 0.03% Pluronic F-127]. The cells were pre-incubated for 10 min with 10 μl of the test substances diluted in buffer, and 20 μl of agonist solution (MCP-1 in Tyrode with 0.05% BSA) were then added. MCP-1 was employed at the concentration which corresponds to the EC50 which had been determined in a preliminary test (usually about 5 nM). Ca^2+ release was monitored over a period of 120 s in 1 s increments in a proprietary fluorescence imaging reader. The molar concentration of the test substance which caused 50% inhibition of the MCP-1 effect (IC50) was determined using a 4-parameter logistic function (Hill function).

murine CCR2 [1] = biological target: T2, murine CCR2 (Mus musculus, UniProt P51683); assay: Functional β-arrestin recruiting test with murine MCP-1 (B-2b); conditions: U2OS β-arrestin cell line transfected with murine CCR2; agonist murine MCP-1
T2 construct: host or cells: U2OS β-arrestin cell line
T2 sequence (P51683 whole entry): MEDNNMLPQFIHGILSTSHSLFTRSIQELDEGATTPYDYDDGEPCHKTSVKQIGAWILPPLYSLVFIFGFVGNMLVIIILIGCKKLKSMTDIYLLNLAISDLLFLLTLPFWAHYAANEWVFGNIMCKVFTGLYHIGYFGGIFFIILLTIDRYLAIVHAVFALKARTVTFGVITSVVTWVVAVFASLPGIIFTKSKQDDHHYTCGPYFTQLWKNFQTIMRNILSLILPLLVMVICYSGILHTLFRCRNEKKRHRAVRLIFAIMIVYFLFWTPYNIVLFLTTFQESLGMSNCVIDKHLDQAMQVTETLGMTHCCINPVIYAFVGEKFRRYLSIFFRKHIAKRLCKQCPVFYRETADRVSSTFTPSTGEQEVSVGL
Experimental: (§2) The antagonistic action of test substances on CCR2 was determined in a β-arrestin test. The PathHunter β-arrestin GPCR test system (DiscoveRx Corporation, Ltd.) is a cell-based functional method for detecting binding of β-arrestin to an activated receptor. The molecular basis is a β-galactosidase complementation measured by the enzymatic conversion of a chemiluminescent substrate. The test cell used was a U2OS β-arrestin cell line transfected with murine CCR2 (93-0543C3, DiscoveRx Corporation, Ltd.).
as §1
(§3) The cells, cultivated in MEM Eagle (supplemented with 10% FCS, 50 U/ml of penicillin, 50 μg/ml of streptomycin, 250 μg/ml of hygromycin and 500 μg/ml of geniticin), were sown at 2000 cells/25 μl in 384 well, μCLEAR/black cell culture plates from Greiner (#781092) and incubated at 37° C. for 24 h. The sowing medium consisted of Opti-MEM (supplemented with 1% FCS, 50 U/ml of penicillin and 50 μg/ml of streptomycin). The cells were pre-incubated for 10 min with 10 μl of the test substances diluted in buffer, and 10 μl of agonist solution [human MCP-1 (PeproTech, #300-04) in Tyrode with 0.05% BSA] were then added. The human MCP-1 was employed at the concentration which corresponds to the EC50 which had been determined in a preliminary test (usually about 3 nM). After 90 min of incubation at 37° C., the solution was removed, and recruitment of β-arrestin to CCR2 was detected with the aid of the PathHunter detection reagent (93-001, DiscoveRx Corporation, Ltd.) according to the instructions of the manufacturer. Luminescence was measured after an incubation time of 60 min using a proprietary luminescence imaging measuring instrument. The molar concentration of the test substance which caused 50% inhibition of the MCP-1 effect (IC50) was determined using a 4-parameter logistic function (Hill function).
The test was carried out in a manner identical to that described above under B-2a, but using murine MCP-1 (PeproTech, #250-10) as agonist.

murine CCR2 [2] = biological target: T2, murine CCR2; assay: Functional β-arrestin recruiting test with human MCP-1 (B-2a); conditions: U2OS β-arrestin cell line transfected with murine CCR2; agonist human MCP-1 at EC50 (about 3 nM)
Experimental: as §2, §1, §3

Row | Compound | IC50 (human CCR2) | IC50 (murine CCR2 [1]) | IC50 (murine CCR2 [2])
1 | Nc1nc(C(F)(F)F)c(Cc2cnc(Cl)c(Cl)c2)c(=O)[nH]1 [Example 59] | 0.011 µM | 7.28 µM | 
2 | Nc1nc(C(F)(F)F)c([S+]([O-])c2ccc(Cl)c(C(F)(F)F)c2)c(=O)[nH]1 (centres unmarked) [Example 60, 2-Amino-5-{[4-chloro-3-(trifluoromethyl)phenyl]sulphinyl}-6-(trifluoromethyl)pyrimidin-4(3H)-one] | 0.117 µM | 1.43 µM | 
3 | Nc1nc(C(F)(F)F)c(Oc2ccc(Cl)cc2)c(=O)[nH]1 [Example 73] | 0.038 µM | 2.31 µM | 
4 | CCNc1nc(C(F)(F)F)c(Oc2ccc(Cl)c(Cl)c2)c(=O)[nH]1 [Example 64, 5-(3,4-Dichlorophenoxy)-2-(ethylamino)-6-(trifluoromethyl)pyrimidin-4(3H)-one] | 0.013 µM | 2.7 µM | 
5 | Nc1nc(C(F)(F)F)c(Cc2ccc(Cl)nc2)c(=O)[nH]1 [Example 58] | 0.381 µM | 60 µM | 
6 | Cc1cc(Oc2c(C(F)(F)F)nc(N)[nH]c2=O)ccc1Cl [Example 72] | 0.0015 µM | 0.545 µM | 
7 | O=c1[nH]c(C2CCC2)nc(C(F)(F)F)c1Oc1ccc(Cl)c(Cl)c1 [Example 69] | 0.032 µM | 0.523 µM | 
8 | O=c1[nH]c(C2CC2)nc(C(F)(F)F)c1Cc1ccc(F)c(Cl)c1 [Example 34, 5-(3-chloro-4-fluorobenzyl)-2-cyclopropyl-6-(trifluoromethyl)pyrimidin-4(3H)-one] | 0.15 µM |  | 0.52 µM
9 | O=c1[nH]c(CO)nc(C(F)(F)F)c1Oc1ccc(F)c(F)c1 [Example 53] | 0.07 µM |  | 0.62 µM
10 | Nc1nc(C(F)(F)F)c(Sc2ccc(Cl)cc2)c(=O)[nH]1 [Example 16, 2-amino-5-[(4-chlorophenyl)sulphanyl]-6-(trifluoromethyl)pyrimidin-4(3H)-one] | 0.031 µM |  | 0.64 µM
11 | Cc1nc(C(F)(F)F)c(Cc2ccc(Cl)c(Cl)c2)c(=O)[nH]1 [Example 18, 5-(3,4-Dichlorobenzyl)-2-methyl-6-(trifluoromethyl)pyrimidin-4(3H)-one] | 0.033 µM |  | 0.37 µM
12 | NC(=O)Cc1nc(C(F)(F)F)c(Oc2ccc(Cl)c(C(F)(F)F)c2)c(=O)[nH]1 [Example 45] | 0.008 µM |  | 0.13 µM
13 | Nc1nc(C(F)(F)F)c(Cc2ccc(F)c(Cl)c2)c(=O)[nH]1 [Example 7, 2-amino-5-(3-chloro-4-fluorobenzyl)-6-(trifluoromethyl)pyrimidin-4(3H)-one] | 0.011 µM |  | 0.3 µM
14 | CCc1nc(C(F)(F)F)c(Cc2cccc(C(F)(F)F)c2)c(=O)[nH]1 [Example 20, 2-ethyl-6-(trifluoromethyl)-5-[3-(trifluoromethyl)benzyl]pyrimidin-4(3H)-one] | 0.3 µM |  | 1.2 µM
15 | Nc1nc(C(F)(F)F)c(Cc2ccc(Cl)c(C(F)(F)F)c2)c(=O)[nH]1 [Example 8, 2-amino-5-[4-chloro-3-(trifluoromethyl)benzyl]-6-(trifluoromethyl)pyrimidin-4(3H)-one] | 0.033 µM |  | 0.16 µM
16 | Nc1nc(C(F)(F)F)c(Oc2cncc(Cl)c2)c(=O)[nH]1 [Example 12, 2-amino-5-[(5-chloropyridin-3-yl)oxy]-6-(trifluoromethyl)pyrimidin-4(3H)-one] | 0.054 µM |  | 1 µM

Row | Compound | IC50 (human CCR2) | IC50 (murine CCR2 [1]) | IC50 (murine CCR2 [2])
17 | NC(=O)Cc1nc(C(F)(F)F)c(Cc2cc(F)cc(C(F)(F)F)c2)c(=O)[nH]1 [Example 42] | 0.4 µM |  | 2.8 µM
18 | Nc1nc(C(F)(F)F)c(Cc2ccc(C(F)(F)F)c(Cl)c2)c(=O)[nH]1 [Example 14, 2-amino-5-[3-chloro-4-(trifluoromethyl)benzyl]-6-(trifluoromethyl)pyrimidin-4(3H)-one] | 0.071 µM |  | 0.81 µM
19 | Cc1ccc(Cc2c(C(F)(F)F)nc(C3CC3)[nH]c2=O)cc1Cl [Example 29, 5-(3-chloro-4-methylbenzyl)-2-cyclopropyl-6-(trifluoromethyl)pyrimidin-4(3H)-one] | 0.091 µM |  | 0.8 µM
20 | Cc1ccc(Cc2c(C(F)(F)F)nc(N)[nH]c2=O)cc1Cl [Example 11, 2-amino-5-(3-chloro-4-methylbenzyl)-6-(trifluoromethyl)pyrimidin-4(3H)-one] | 0.042 µM |  | 0.56 µM
21 | NC(=O)Cc1nc(C(F)(F)F)c(Cc2ccc(F)c(Cl)c2)c(=O)[nH]1 [Example 44] | 0.09 µM |  | 0.42 µM
22 | Nc1nc(C(F)(F)F)c(Oc2ccc(F)c(F)c2)c(=O)[nH]1 [Example 10, 2-amino-5-(3,4-difluorophenoxy)-6-(trifluoromethyl)pyrimidin-4(3H)-one] | 0.043 µM |  | 1.3 µM
23 | Nc1nc(C(F)(F)F)c(Oc2ccc(Cl)c(F)c2)c(=O)[nH]1 [Example 5, 2-amino-5-(4-chloro-3-fluorophenoxy)-6-(trifluoromethyl)pyrimidin-4(3H)-one] | 0.0087 µM |  | 0.21 µM
24 | O=c1[nH]c(C2CC2)nc(C(F)(F)F)c1Cc1ccc(Cl)c(F)c1 [Example 23, 5-(4-chloro-3-fluorobenzyl)-2-cyclopropyl-6-(trifluoromethyl)pyrimidin-4(3H)-one] | 0.28 µM |  | 1.2 µM
25 | NC(=O)Cc1nc(C(F)(F)F)c(Oc2ccc(F)c(C(F)(F)F)c2)c(=O)[nH]1 [Example 49] | 0.091 µM |  | 0.38 µM
26 | Cc1ccc(Cc2c(C(F)(F)F)nc(CC(N)=O)[nH]c2=O)cc1Cl [Example 47] | 0.049 µM |  | 0.83 µM
27 | O=c1[nH]c(CCO)nc(C(F)(F)F)c1Oc1ccc(Cl)c(Cl)c1 [Example 68] | 0.049 µM |  | 0.37 µM
28 | NC(=O)Cc1nc(C(F)(F)F)c(Cc2cccc(C(F)(F)F)c2)c(=O)[nH]1 [Example 41] | 0.27 µM |  | 2 µM
29 | CCc1nc(C(F)(F)F)c(Cc2ccc(Cl)c(C(F)(F)F)c2)c(=O)[nH]1 [Example 26, 5-[4-chloro-3-(trifluoromethyl)benzyl]-2-ethyl-6-(trifluoromethyl)pyrimidin-4(3H)-one] | 0.031 µM |  | 0.24 µM
30 | NC(=O)Cc1nc(C(F)(F)F)c(Cc2ccc(Cl)c(F)c2)c(=O)[nH]1 [Example 40] | 0.15 µM |  | 0.97 µM
31 | O=c1[nH]c(C2CC2)nc(C(F)(F)F)c1Oc1ccc(Cl)c(Cl)c1 [Example 25, 2-cyclopropyl-5-(3,4-dichlorophenoxy)-6-(trifluoromethyl)pyrimidin-4(3H)-one] | 0.015 µM |  | 0.17 µM
